# Test results published in paper PMC11939361, “diAcCA, a Pro-Drug for Carnosic Acid That Activates the Nrf2 Transcriptional Pathway, Shows Efficacy in the 5xFAD Transgenic Mouse Model of Alzheimer’s Disease” (Antioxidants, 2025).
# Read-outs that look alike come from different tables or passages of the source.
# Columns and labels:
# [1] = Brain levels of CA from prior plasma/brain PK data; assay type: in vivo; settings: for Cmax: mouse, read-out: predicted Cmax in the brain
# Description: We also determined the stability and bioavailability of diAcCA compared to CA. For this purpose, individual mice were administered CA or diAcCA IV or via oral gavage/PO. For CA, the doses were 3 mg/kg for the IV route and 10 mg/kg for oral gavage/PO, and for diAcCA 10 mg/kg by oral gavage/PO. Plasma concentrations were evaluated at ten different time points over the next 72 h (raw data shown in Tables S1 and S2, Supplementary Materials).
# The extensive existing PK data obtained on plasma and brain samples for CA, correlated with prior in vivo efficacy data for CA [26, 33, 49], allowed us to calculate the therapeutic dose range that we wanted to test here for diAcCA.
# [2] = test system: 5xFAD mice; assay: Contextual and cued conditioned fear test; assay type: in vivo, mouse; settings: diAcCA PO for 3 months
# Description: (§1) diAcCA or control vehicle was administered three times per week for 3 months to 5xFAD Tg or WT littermate control mice starting at approximately 5 months of age by oral gavage (designated here as “per os” or PO). Three different doses were used (10 mg/kg, 20 mg/kg, or 50 mg/kg). diAcCA was dissolved in olive oil vehicle, a non-polar organic solvent. For vehicle control, we administered olive oil alone. A total of 45 animals were used in this study, with 7–8 animals in each group.
# Contextual and cued learning processes in mice rely on the hippocampus and amygdala, respectively. Fear conditioning is used to evaluate both of these processes. During the conditioning period, mice are trained to associate a context (distinctive environment) and a conditioned stimulus (CS, neutral stimulus consisting of a tone and light) with an unpleasant foot shock to which the mice learn to respond by freezing their movement. Here, we evaluated hippocampal function using the contextual and cued conditioned fear test. […]
# On day 1, the mice were acclimatized to the chambers in a 5 min session with no shock. […] On day 3, a 5 min trial took place in the original training chamber (context test) and contextual conditioning was evaluated by observing freezing behavior. […]
# [3] = test system: DAM-related genes in 5xFAD mouse brain; assay: nCounter NanoString neuropathology gene expression panel; assay type: in vivo
# Description: as §1
# The hippocampus/cortex were isolated from the brain and RNA isolation was performed immediately using the Quick-RNA Miniprep kit (76211-580, VWR, Radnor, PA, USA). RNA was then analyzed by the Salk Institute Single-Cell & Spatial Omics Core for the nCounter Neuropathology panel (NanoString, Bruker Spatial Biology, Inc., Seattle, WA, USA). The list of genes included in the NanoString analysis is provided as Supplementary Information (Table S3). The analysis was performed using the following packages on R studio software version 4.2.3: readr 2.1.5, dplyr 1.1.4, clusterProfiler 4.6.2, org.mm.eg.db 3.16.0, ggplot2 3.5.1, and stringr 1.5.1.
# To elucidate the molecular underpinnings of the effect of diAcCA on neuroinflammation, we next analyzed disease-associated microglia (DAM) signatures in WT and 5xFAD mouse brains using nCounter® biomarker analysis (NanoString, Bruker Spatial Biology, Inc., […]). RNA was isolated from the hippocampus/cortex of WT and 5xFAD mice that had received three-month vehicle or diAcCA treatment, and a NanoString neuropathology gene expression panel was performed (Figure 4).
# [4] = Shelf life / stability of the compound over time; assay type: physicochemical; settings: storage (CA: even if kept in the dark and cold)
smiles,measurement,setting,value
CC(=O)Oc1c(C(C)C)cc2c(c1OC(C)=O)[C@@]1(C(=O)O)CCCC(C)(C)[C@@H]1CC2 [diAcCA],time to reach neurotherapeutic levels in the brain,[1]; after conversion of diAcCA to CA,less than 1 h
same,Cmax,[1]; diAcCA 10 mg/kg PO,~600 nM
same,Cmax,[1]; diAcCA 20 mg/kg PO,~1200 nM
same,Cmax,[1]; diAcCA 50 mg/kg PO,~3000 nM
same,"context test of conditioned fear, freezing behavior",[2],showed freezing behavior similar to WT mice
same,expression of DAM genes C3 and Igf1,"[3]; 5xFAD brain, 20 or 50 mg/kg vs vehicle, n = 3",significantly downregulated
same,DAM signature (heatmap of DAM-related genes),"[3]; 5xFAD hippocampus/cortex RNA, three-month treatment, n = 3",dose-dependent decrease in DAM signature
same,GO biological pathway analysis of upregulated and downregulated genes,[3]; diAcCA-treated 5xFAD brain vs vehicle-treated,upregulation of genes enriched in pathways associated with neuroprotection
same,shelf life / stability over time,[4],stable in our hands for over two years
same,shelf life / stability over time,[4]; listed as diAcCa,stable shelf life (of over two years)
